Results taken from the NIST ThermoML archive (doi:10.1021/je300852v).

Experiment: mean ionic activity coefficient (dimensionless); mn = molality of the nth substance listed, in mol/kg
Settings: 298.15 K, 101 kPa, Liquid, 2 term dubye huckel

[Ca+2].[Cl-].[Cl-] [calcium chloride] + O
Settings	mean ionic activity coefficient
m1 = 0.01	0.728
m1 = 0.02	0.664
m1 = 0.05	0.576
m1 = 0.1	0.517
m1 = 0.2	0.47
m1 = 0.3	0.453
m1 = 0.4	0.448
m1 = 0.5	0.449
m1 = 0.6	0.454
m1 = 0.7	0.462
m1 = 0.8	0.473
m1 = 0.9	0.487
m1 = 1	0.502
m1 = 1.2	0.54
m1 = 1.4	0.586
m1 = 1.6	0.643
m1 = 1.8	0.71
m1 = 2	0.79
m1 = 2.5	1.064
m1 = 3	1.49
